Legend:
CYP1A2 = molecular target: T1, CYP1A2 (Homo sapiens, UniProt P05177); assay: Inhibition of human recombinant CYP1A2 expressed in insect microsomes at 2 uM; format: ADME, Microsome
T1 sequence (P05177 whole entry): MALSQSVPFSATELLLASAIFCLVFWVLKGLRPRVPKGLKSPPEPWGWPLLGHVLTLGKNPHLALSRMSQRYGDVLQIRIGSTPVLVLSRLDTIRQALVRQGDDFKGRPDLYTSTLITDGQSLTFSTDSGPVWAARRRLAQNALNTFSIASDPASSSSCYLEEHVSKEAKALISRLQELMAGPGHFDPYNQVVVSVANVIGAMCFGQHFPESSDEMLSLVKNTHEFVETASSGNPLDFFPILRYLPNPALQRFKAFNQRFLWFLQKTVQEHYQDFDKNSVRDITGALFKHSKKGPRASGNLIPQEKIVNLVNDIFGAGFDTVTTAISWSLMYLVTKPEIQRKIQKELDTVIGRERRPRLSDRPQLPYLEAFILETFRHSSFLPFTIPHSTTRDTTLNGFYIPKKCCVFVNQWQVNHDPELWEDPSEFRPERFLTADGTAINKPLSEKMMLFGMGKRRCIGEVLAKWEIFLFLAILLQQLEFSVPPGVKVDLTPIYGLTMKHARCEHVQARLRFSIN

Homo sapiens = species: Homo sapiens; assay: Selectivity ratio of IC50 for human CYP11B1 to IC50 for human CYP11B2
[1] = molecular target: T2, Cytochrome P450 11B2, mitochondrial (Homo sapiens, UniProt P19099)
T2 sequence (P19099 whole entry): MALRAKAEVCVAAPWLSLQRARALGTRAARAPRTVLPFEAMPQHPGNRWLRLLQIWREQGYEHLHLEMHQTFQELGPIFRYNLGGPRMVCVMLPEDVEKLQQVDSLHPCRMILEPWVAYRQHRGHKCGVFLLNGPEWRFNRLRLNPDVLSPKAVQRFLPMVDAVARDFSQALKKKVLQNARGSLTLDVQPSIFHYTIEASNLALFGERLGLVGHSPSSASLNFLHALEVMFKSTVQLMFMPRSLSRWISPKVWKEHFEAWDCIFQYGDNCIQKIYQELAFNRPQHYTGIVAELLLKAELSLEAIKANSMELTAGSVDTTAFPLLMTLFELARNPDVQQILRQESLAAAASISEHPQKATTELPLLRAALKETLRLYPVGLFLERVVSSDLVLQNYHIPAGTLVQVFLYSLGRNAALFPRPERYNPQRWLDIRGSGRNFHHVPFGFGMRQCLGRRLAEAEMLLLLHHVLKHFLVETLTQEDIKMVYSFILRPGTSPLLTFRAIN

[2] = molecular target: T3, Cytochrome P450 11B1, mitochondrial (Homo sapiens, UniProt P15538)
T3 sequence (P15538 whole entry): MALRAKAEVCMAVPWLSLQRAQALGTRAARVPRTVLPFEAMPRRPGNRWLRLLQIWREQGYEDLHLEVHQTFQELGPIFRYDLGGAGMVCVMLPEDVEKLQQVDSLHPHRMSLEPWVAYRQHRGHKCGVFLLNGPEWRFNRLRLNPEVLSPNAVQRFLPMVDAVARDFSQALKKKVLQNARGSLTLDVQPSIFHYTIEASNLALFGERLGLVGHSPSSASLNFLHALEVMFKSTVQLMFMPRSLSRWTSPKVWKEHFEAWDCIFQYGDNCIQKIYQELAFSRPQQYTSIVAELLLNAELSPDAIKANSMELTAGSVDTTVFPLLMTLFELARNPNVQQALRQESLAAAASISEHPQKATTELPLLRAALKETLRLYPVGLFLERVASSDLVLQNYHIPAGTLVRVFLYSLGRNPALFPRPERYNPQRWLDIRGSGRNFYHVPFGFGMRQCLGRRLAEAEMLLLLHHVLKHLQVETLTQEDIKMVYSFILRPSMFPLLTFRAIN

| SMILES | inhibition at 2 µM (CYP1A2) [%] | Ratio IC50 (Homo sapiens) | IC50 [1] [nM] | IC50 [2] [nM] |
| --- | --- | --- | --- | --- |
| COc1ccc2c(c1)CCC(c1cccnc1)=C2 | 98 |  |  |  |
| COC(=O)Cc1cncc(-c2ccc3cc(OC)ccc3c2)c1 |  | 29 | 6.9 | 199 |
| Cc1nc2c([nH]1)c(=O)n(C)c(=O)n2Cc1ccco1 [FURAFYLLINE] | 55 |  |  |  |
| COc1cncc(-c2cc3ccc(OC)cc3cc2C)c1 | 91 | 230 | 3.8 | 875 |
| COc1ccc2cc(-c3cncc(CC(=O)O)c3)ccc2c1 |  | 31 | 1220 | 37800 |
| COC(=O)c1cncc(-c2ccc3cc(OC)ccc3c2)c1 |  | 19 | 0.8 | 15 |
| COc1ccc2c(c1)CC(C)C(c1cncc3ccccc13)=C2 (stereo not drawn) | 6 | 128 | 0.5 | 64 |
| N#Cc1ccc2c(c1)CCC(c1cccnc1)=C2 | 91 | 103 | 4.5 | 461 |
| COc1cncc(C2=Cc3ccc(OC)cc3CC2C)c1 (stereo not drawn) | 18 | 83 | 1.2 | 100 |
| COc1ccc2cc(-c3cncc4ccccc34)c(C)cc2c1 | 45 | 272 | 3.1 | 843 |
| COc1ccc2cc(-c3cncc(-c4ccccc4)c3)ccc2c1 |  | 32 | 4.8 | 151 |
| COc1ccc2c(c1)CC(C)C(c1cccnc1)=C2 (stereo not drawn) | 73 | 79 | 3.3 |  |

Further lines, results first:

| inhibition at 2 µM (CYP1A2) [%] | Ratio IC50 (Homo sapiens) | IC50 [1] [nM] | IC50 [2] [nM] | SMILES |
| --- | --- | --- | --- | --- |
| 97 | 198 | 2.2 | 435 | COCc1ccncc1-c1ccc2cc(OC)ccc2c1 |
| 86 | 87 | 0.6 | 52 | Cc1ccncc1-c1ccc2cc(C#N)ccc2c1 |
| 93 | 95 | 94 | 8920 | COc1ccc2cc(-c3cncc(O)c3)ccc2c1 |
| 93 | 150 | 7 | 1050 | COc1ccc2cc(-c3cccnc3)c(C)cc2c1 |
| 78 | 198 | 0.5 | 99 | COc1ccc2cc(-c3cncc(C(C)O)c3)ccc2c1 (stereo not drawn) |
|  | 442 | 94 | 41600 | COc1ccc2cc(-c3cncc(C(N)=O)c3)ccc2c1 |
|  | 50 | 0.2 | 10 | COc1ccc2cc(-c3cncc(C(C)OC)c3)ccc2c1 (stereo not drawn) |
| 93 | 68 | 9.1 | 614 | COc1ccc2cc(-c3cncc(CO)c3)ccc2c1 |
| 83 | 155 | 0.2 | 31 | COCc1cncc(-c2ccc3cc(OC)ccc3c2)c1 |
| 98 | 143 | 0.8 | 114 | COc1ccc2cc(-c3cnccc3C)ccc2c1 |
| 85 | 73 | 5.1 | 373 | CCOc1cncc(-c2ccc3cc(OC)ccc3c2)c1 |
| 92 | 80 | 22 | 1760 | COc1ccc2cc(-c3cnccc3CO)ccc2c1 |
